Literature values, collected in patent publication US12394803B2, “Production method of catalyst, catalyst, production method of composition, composition, electrode, manufacturing method of electrode, fuel cell, metal-air battery” (Azul Energy Inc., priority 2019, dated 2025).

Conditions: background statement on Patent Document 1

Solubility in 2-propanol: low solubility
SMILES: [Fe+2].c1ccc2c(c1)-c1nc-2nc2[n-]c(nc3nc(nc4[n-]c(n1)c1ccccc41)-c1ccccc1-3)c1ccccc21 [Iron phthalocyanines, Iron phthalocyanine]
